Measured values taken from ChEMBL document CHEMBL1201862, “PubChem BioAssay data set” (2004).
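A five-concentration, 48-hour dose response in 96-well plates underlies each endpoint, interpolated linearly between surrounding concentrations. Abbreviation: GI50, concentration required for 50% inhibition of growth.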 The source made the active and inactive calls. Cut-off read from the data, not from the text of the source: active = GI50 up to about 1.1 µM and inactive = higher.

What was measured:
Experiment in all cases: NCI anticancer screen, dose series, 48 h
SF-539 = system: SF-539
MOLT-4 = system: MOLT-4
CCRF-CEM = system: CCRF-CEM
SK-MEL-28 = system: SK-MEL-28
NCI-H460 = system: NCI-H460
MDA-MB-435 = system: MDA-MB-435
SF-268 = system: SF-268
K562 = system: K562
MDA-MB-231 = system: MDA-MB-231
TK-10 = system: TK-10
UACC-257 = system: UACC-257
SNB-75 = system: SNB-75
SNB-19 = system: SNB-19
BT-549 = system: BT-549
A549 = system: A549
COLO 205 = system: COLO 205
NCI-H23 = system: NCI-H23
SK-MEL-2 = system: SK-MEL-2
T47D = system: T47D

Measured: GI50

CC(C)(C)OC(=O)NC(Cc1ccc(O)cn1)C(=O)O (stereo unspecified)
inactive: SF-539 > 100 µM | MOLT-4 > 100 µM | CCRF-CEM > 10 µM | SK-MEL-28 > 100 µM | NCI-H460 > 100 µM | MDA-MB-435 > 100 µM | SF-268 > 100 µM | K562 > 100 µM | MDA-MB-231 > 100 µM | TK-10 > 100 µM | UACC-257 > 100 µM | SNB-75 > 100 µM | SNB-19 > 100 µM | BT-549 > 100 µM | A549 > 100 µM | COLO 205 > 100 µM | NCI-H23 > 100 µM

CC(C)(C)c1cc([N+](=O)[O-])cc([N+](=O)[O-])c1O [DINOTERB]
inactive: SF-539 > 10 µM | MOLT-4 > 10 µM | CCRF-CEM > 10 µM | SK-MEL-28 > 10 µM | NCI-H460 7.98 µM | MDA-MB-435 > 10 µM | SF-268 > 10 µM | K562 9.29 µM | MDA-MB-231 > 10 µM | TK-10 > 10 µM | UACC-257 8.57 µM | SNB-75 > 10 µM | SK-MEL-2 > 10 µM | SNB-19 > 10 µM | A549 7.64 µM | T47D > 10 µM | COLO 205 > 10 µM | NCI-H23 > 10 µM

OC(C/C=N/Nc1ccccc1)(C(F)(F)Cl)C(F)(F)Cl
inactive: SF-539 > 10 µM | CCRF-CEM > 10 µM | SK-MEL-28 > 10 µM | NCI-H460 5.53 µM | MDA-MB-435 7.35 µM | SF-268 > 10 µM | K562 9.46 µM | MDA-MB-231 4 µM | TK-10 > 10 µM | UACC-257 > 10 µM | SNB-75 9.91 µM | SK-MEL-2 > 10 µM | SNB-19 > 10 µM | A549 > 10 µM | T47D 7.53 µM | COLO 205 > 10 µM | NCI-H23 7.23 µM

O=C1/C(=C/c2cccc3ccccc23)Cc2ccccc21
inactive: SF-539 27.2 µM | MOLT-4 40.5 µM | CCRF-CEM 59.2 µM | SK-MEL-28 32.8 µM | NCI-H460 36.6 µM | SF-268 22.6 µM | K562 62.4 µM | TK-10 49.2 µM | SNB-75 29.8 µM | SNB-19 17.9 µM | BT-549 13.2 µM | A549 38.4 µM | NCI-H23 17.1 µM

Nc1ncc(Cc2nn3c(COc4ccc(Cl)cc4)nnc3s2)s1
inactive: SF-539 > 100 µM | MOLT-4 > 100 µM | CCRF-CEM > 100 µM | SK-MEL-28 > 100 µM | NCI-H460 > 100 µM | MDA-MB-435 > 100 µM | SF-268 > 100 µM | K562 > 100 µM | MDA-MB-231 > 100 µM | TK-10 45.2 µM | UACC-257 > 100 µM | SNB-75 > 100 µM | SK-MEL-2 > 100 µM | SNB-19 > 100 µM | A549 > 100 µM | T47D > 100 µM | COLO 205 > 100 µM | NCI-H23 > 100 µM

Nc1nc(Cl)cc(NCCCCCNc2cc(Cl)nc(N)n2)n1
inactive: SF-539 > 100 µM | MOLT-4 7.48 µM | CCRF-CEM 54.1 µM | SK-MEL-28 75 µM | NCI-H460 > 100 µM | SF-268 29.1 µM | K562 34.6 µM | TK-10 > 100 µM | UACC-257 46.8 µM | SNB-75 72.3 µM | SK-MEL-2 > 100 µM | SNB-19 > 100 µM | A549 42 µM | COLO 205 > 100 µM | NCI-H23 55.5 µM

Cc1ccc2c(c1)CC1(Cc3ccccc3C1=O)C2=O (stereo unspecified)
inactive: SF-539 > 100 µM | MOLT-4 > 100 µM | CCRF-CEM > 100 µM | SK-MEL-28 > 100 µM | NCI-H460 > 100 µM | MDA-MB-435 > 100 µM | SF-268 > 100 µM | K562 > 100 µM | MDA-MB-231 > 100 µM | TK-10 > 100 µM | UACC-257 > 100 µM | SNB-75 > 100 µM | SNB-19 > 100 µM | A549 > 100 µM | T47D > 100 µM | COLO 205 > 100 µM | NCI-H23 > 100 µM

CC(=O)Oc1ccc(-c2c(OC(C)=O)c(OC(C)=O)c(-c3ccc(OC(C)=O)c(OC(C)=O)c3)c(OC(C)=O)c2OC(C)=O)cc1
inactive: SF-539 18.2 µM | MOLT-4 20.2 µM | CCRF-CEM 10.7 µM | SK-MEL-28 14.8 µM | NCI-H460 40.1 µM | MDA-MB-435 16.9 µM | SF-268 17.7 µM | K562 21.5 µM | MDA-MB-231 18.6 µM | TK-10 15.9 µM | UACC-257 15.1 µM | SNB-75 13.6 µM | SK-MEL-2 16.1 µM | SNB-19 15.8 µM | A549 17.8 µM | T47D 10.6 µM | COLO 205 17.7 µM | NCI-H23 19 µM

O=[N+]([O-])/C(C(Cl)=C(Cl)Cl)=C1/OCCS1
inactive: SF-539 21.3 µM | MOLT-4 17.9 µM | CCRF-CEM 15.9 µM | SK-MEL-28 31.8 µM | NCI-H460 27 µM | MDA-MB-435 22.6 µM | SF-268 25.5 µM | K562 30 µM | MDA-MB-231 17.5 µM | TK-10 25.9 µM | UACC-257 27.7 µM | SNB-75 13.9 µM | SK-MEL-2 27.7 µM | SNB-19 50.4 µM | A549 23.3 µM | T47D 37.2 µM | COLO 205 19.8 µM | NCI-H23 23.4 µM
